# From US20120322060A1, “DIAGNOSIS AND MONITORING TREATMENT OF PSYCHIATRIC DISEASES WITH SPADIN AND RELATED METHODS” (CENTRE NATIONAL DE LE RECHERCHE SCIENTIFIQUE - CNRS -, priority 2011, published 2012)
# Entries after “also recorded” stand apart in the source; their conditions may differ. No end group written: not given here.
# Tests used:
# CREB = test: Total CREB and pCREB Western blotting of hippocampus; type: in vivo, mouse; details: 4-day treatment, i.p. 10^-5 M, hippocampus extracts
# Protocol: Mouse brains were dissected on ice. Isolated hippocampi (1-2 mg wet tissue/100 μl) were homogenized in a solubilization buffer containing 20 mM HEPES (pH:7.9), 0.4 M NaCl, 20% (v/v) glycerol, 1% (v/v) Nonidet P-40, 5 mM MgCl2, 0.5 mM EDTA, 0.1 mM EGTA and protease inhibitor cocktail using a dounce homogenizer. The homogenates were centrifuged 30 min at 15,000×g at 4° C. Supernatants were stored at −70° C. until further use. Protein concentrations were measured using conventional Bradford's method. Samples ([…] proteins from each experimental group) were resuspended in SDS buffer, sonicated, boiled for 5 min before loading on 10% SDS PAGE gels and electrophoresed for 2 hours at 60 mA. Proteins were then transferred from gels onto Hybond-PVDF membranes (Amersham Biosciences) in blotting buffer (156 mM Tris, 1 M glycine, PBS) for 90 min at 80 mA and blocked with 5% skim milk (Regilait) in PBS for 2 hours at room temperature. […] Total CREB or tubulin contents were determined after stripping by using 1/1000 dilution of anti-CREB antibody (Cell Signaling Technology) and 1/1000 dilution of anti-tubulin antibody (Sigma-Aldrich). […] Relative intensities of the labeled bands were analyzed by densitometric scanning using Image) imaging system. CREB activation was expressed as the ratio between pCREB and total CREB present in each sample.
# [1] = system: C13NJ microglial cell line; test: C13NJ wound-healing assay (NT-induced cell migration); type: cell-based; details: 10 nM NT in the presence of 1 μM spadin
# Protocol: A cell-free zone was created within a semi-confluent monolayer with a pipette tip. We analyzed by time-lapse microscopy how cells repopulated the cell-free zone. The 100% of migrating cells was calculated by stimulation of cell migration with 10% of Fetal Calf Serum (FCS).
# A cell-free zone was created within a semi-confluent monolayer of microglial culture by scratching cells off with a pipette tip.
# mice [2] = test: Porsolt Forced Swim Test (FST) in mice; type: in vivo, mouse; details: for reduced immobility time: acute, 30 min before test
# Protocol: Mice (Janvier, France) were placed individually in cylinders (height: 30 cm, diameter: 15 cm) filled with 12 cm deep water (temperature: 22±1° C.) for 6 min. The total period of immobility was recorded during the last 4 min.
# [3] = in vivo
# Protocol: Since spadin exerted efficient effects after i.p. or i.v. administration, we evaluated its ability to pass through the blood-brain barrier. ^125I-labelled spadin (1 nmol of spadin plus 2×10^6 cpm ^125I-spadin) was i.v. injected and animals were sacrificed 30 min following injection. The brains were rapidly removed and homogenized. The radioactivity recovered in the brain was acid-extracted, quantified and analyzed by HPLC. […] The concentration of spadin recovered into the brain was estimated to stand around 10 nM, a concentration that corresponds to the affinity of spadin for TREK-1 and sufficient to be active on TREK-1 channel activity. This value was also in the same range of the IC50 determined by electrophysiological measurements (FIG. 3C).
# mice [4] = test: Novelty-Suppressed Feeding test (NSF); type: in vivo, mouse; details: 4 days; spadin i.v. 10^-6 M, fluoxetine i.p. 3 mg/kg; 3 mg/kg
# Protocol: NSF paradigm is a conflict test that elicits competing motivations: the drive to eat and the fear of venturing into the center of a bright arena. Latency to begin eating is used as an index of anxiety- and depression-like behavior. After 4 day treatment (saline or spadin, i.v.) and 24 hours food-deprivation, mice were presented with a food pellet placed in the center of a brightly plastic box (50×50×20 cm). Latency to begin eating was measured as previously described.
# mice [5] = test: Corticosterone assay after tube restraint stress; type: in vivo, mouse; details: 30 min after 10 min tube restraint; spadin i.p. 10^-5 M
# Protocol: Mice were individually housed for at least 12 hours before blood sample collection. Serum samples, collected in the morning were obtained by retroorbital puncture before and 30 min after the end of a 10-min tube restraint. Levels of corticosterone were measured by radioimmunoassay using a commercially available kit (MP Biomedicals).
# mice [6] = test: Light/dark exploration; type: in vivo, mouse; details: spadin i.p. 10^-5 M, diazepam i.p. 0.5 mg/kg
# Protocol: The apparatus consisted of a cage (25×40×20 cm) divided into two compartments by a black partition containing a small opening that allows mouse to move from one compartment to the other. One compartment, comprising […] of the surface area, was made of white plastic and was brightly illuminated. The adjoining smaller compartment was black and dark. Mice were placed in the white compartment and allowed to move freely between the two chambers for 5 minutes. The number of transitions between the two compartments, time spent in the white chamber, and latency to the first transition were recorded. Mice tend to avoid the white compartment. Thus the measures of exploration in this area (time and entrances) were used as experimental indices of anxiety.
# mice [7] = test: Staircase test; type: in vivo, mouse; details: spadin i.p. 10^-5 M, diazepam i.p. 0.5 mg/kg
# Protocol: The apparatus comprised an enclosed staircase consisted of five identical steps (2.5 cm in height×11 cm in width×7.5 cm in length), each made of black plastic. The height of the walls was constant (12.5 cm above the stairs) along the entire length of the staircase. Each mouse was placed individually on the floor of the staircase with its back to the staircase. A step was considered climbed only if the mouse placed all four paws on it. Rearing was recorded when the mouse rose on its hind legs either on the step or against the wall. The number of steps ascended and the number of rearings made in a 3-min period were recorded. Results were expressed as ratio of rearing/step numbers.
sequence,measurement,setting,value
APLPRWSGPIGVSWGLR [spadin],stimulation of pCREB (quantification of blots),CREB,4 fold
same,"migrating cells, % of number migrating with 10% FCS",[1],6.2±1.3%
same,reduced immobility time,"mice [2]; i.c.v., 10^-7 M",66.8%
same,reduced immobility time,"mice [2]; i.p., 10^-8 M",55.30%
same,reduced immobility time,"mice [2]; i.v., 10^-6 M",62.9%
same,reduction of time of immobility,"mice [2]; chronic, 15 days, spadin 10^-6 M, fluoxetine 1 mg/kg",around 30%
same,effect in FST,mice [2]; injection in kcnk2-/- mice,did not induce any change
same,reduction of time spent immobile,"mice [2]; subchronic, 4 days, spadin i.v. 10^-6 M, fluoxetine 3 mg/kg",43.2%
same,amount of spadin recovered in the brain,[3],Identical amounts
same,latency to feed versus saline,mice [4],significant decrease in latency to feed; also recorded: significantly reduced the latency to feed
same,reduction of stress-induced increase in corticosterone levels versus saline,mice [5],79.5%
same,number of light/dark transitions,mice [6],did not make more transitions
same,rearing/step numbers ratio,mice [7],had no effect
